# From US6379720B1, “Compositions containing hops extract and their use in water systems and process streams to control biological fouling” (Nalco Chemical Company, priority 2000, dated 2002)
# Several values for one entry are separate records, joined by “and”; a condition that tells them apart may be missing. Equal values may be shown once.
# Tested on: Scenedesmus obliquus green algae
# Assay: Synergism test of hops extract/biocide combinations (Kull Synergism Index), chlorophyll OD 650 nm endpoint
# Format: cell-based
# Text: The accepted method used to determined synergism is described by Kull, F. C., Eisman, P. C., Sylwestrowicz, H. D., and Mayer, R. L. in Applied Microbiology 9:538-541 (1961), and is well known in the art.
# The equation for determining synergism is as follows:
# QaQA+Qb/QB=Synergism Index (SI)
# Where QA and QB are the concentrations of compounds A or B that produce an endpoint when acting alone, and where Qa and Qb are the concentrations of compounds A or B acting in the A/B combination required to produce an endpoint. The endpoint is defined by the particular test method, for example, an optical density.
# To determine synergism, one evaluates the Synergism Index (SI).
# The efficacy of the invention was tested in the following manner:
# Scenedesmus obliquus green algae cells were prepared in synthetic cooling water (pH 8.2) to a concentration of 10^7 CFU/ml. 100 ul of the algae suspension were added to 200 ul aliquots of hops extract antimicrobial compositions in synthetic cooling water contained in 96 well microplates (FALCON® 3075). A wide range of hops extract/biocide combinations were tested. Microplates were covered with the provided lid and incubated at 25° C. for six days with 16 hour/8 hour light/dark cycles (cool-white fluorescent lamps, 1255 lux). Following incubation, supernatant was removed from each microplate well by vacuum aspiration. […] 200 ul of dimethylsulfoxide (DMSO) were added to each microplate well to dissolve the algae cells and extract chlorophyll. The optical density at 650 nm of each extraction was determined using a plate reader (Beckman Biomek®).
# A wide range of ratios of the two active ingredients can be used, depending on several factors including the microorganisms to be controlled. In this example, data designated as QA and Qa in each case are for hops extract and data designated as QB and Qb are for the other antimicrobial (IZN, POLYQUAT, GLUT, TBTZ, DCOI, THPS, BNEF, DBNPA, and DTEA).
# [1] = with hops extract 8 ppm, Endpoint OD650 = 0.300
# [2] = with hops extract 16 ppm, Endpoint OD650 = 0.300
molecule,measurement,setting,value
"O=[N+]([O-])C(Br)=Cc1ccco1 [BNEF, 2-(2-bromo-2-nitroethenyl)furan]",QB (concentration of the antimicrobial that produces the endpoint when acting alone),"Endpoint OD650 = 0.300, (32) used for synergy calculations",>16 (32) ppm
same,Qb (concentration of the antimicrobial in the combination required to produce the endpoint),"with hops extract 4 ppm, Endpoint OD650 = 0.300",16 ppm
same,Qb (concentration of the antimicrobial in the combination required to produce the endpoint),[1],16 ppm
same,Qb (concentration of the antimicrobial in the combination required to produce the endpoint),[2],1 ppm
"N#CC(Br)(Br)C(N)=O [DBNPA, 2,2-dibromo-3-nitrilopropionamide]",QB (concentration of the antimicrobial that produces the endpoint when acting alone),"Endpoint OD650 = 0.200, (32) used for synergy calculations",>16 (32) ppm
same,Qb (concentration of the antimicrobial in the combination required to produce the endpoint),"with hops extract 4 ppm, Endpoint OD650 = 0.200",16 ppm
same,Qb (concentration of the antimicrobial in the combination required to produce the endpoint),"with hops extract 16 ppm, Endpoint OD650 = 0.200",16 ppm
"CCCCCCCCn1sc(Cl)c(Cl)c1=O [DCOI, 4,5-dichloro-2-n-octyl-4-isothiazolin-3-one]",QB (concentration of the antimicrobial that produces the endpoint when acting alone),"Endpoint OD650 = 0.150, (32) used for synergy calculations",>16 (32) ppm
same,Qb (concentration of the antimicrobial in the combination required to produce the endpoint),"with hops extract 4 ppm, Endpoint OD650 = 0.150",16 ppm
same,Qb (concentration of the antimicrobial in the combination required to produce the endpoint),"with hops extract 64 ppm, Endpoint OD650 = 0.150",8 ppm and 16 ppm
"CCCCCCCCCCSCCN [DTEA, 2-(decylthio)ethanamine]",QB (concentration of the antimicrobial that produces the endpoint when acting alone),Endpoint OD650 = 0.300,16 ppm
same,Qb (concentration of the antimicrobial in the combination required to produce the endpoint),[1],4 ppm and 8 ppm
same,Qb (concentration of the antimicrobial in the combination required to produce the endpoint),[2],1 ppm and 2 ppm
"O=CCCCC=O [GLUT, glutaraldehyde]",QB (concentration of the antimicrobial that produces the endpoint when acting alone),"Endpoint OD650 = 0.250, (32) used for synergy calculations",>16 (32) ppm
same,Qb (concentration of the antimicrobial in the combination required to produce the endpoint),"with hops extract 16 ppm, Endpoint OD650 = 0.250",4 ppm
"CCNc1nc(Cl)nc(NC(C)(C)C)n1 [TBTZ, 2-(tert-butylamino)-4-chloro-6(ethylamino)-s-triazine]",QB (concentration of the antimicrobial that produces the endpoint when acting alone),Endpoint OD650 = 0.250,16 ppm
methylchloro/isothiazolone [IZN],QB (concentration of the antimicrobial that produces the endpoint when acting alone),"Endpoint OD650 = 0.100, (32) used for synergy calculations",>16 (32) ppm
same,Qb (concentration of the antimicrobial in the combination required to produce the endpoint),"with hops extract 16 ppm, Endpoint OD650 = 0.100",16 ppm
same,Qb (concentration of the antimicrobial in the combination required to produce the endpoint),"with hops extract 32 ppm, Endpoint OD650 = 0.100",16 ppm
same,Qb (concentration of the antimicrobial in the combination required to produce the endpoint),"with hops extract 64 ppm, Endpoint OD650 = 0.100",8 ppm and 16 ppm
same,Qb (concentration of the antimicrobial in the combination required to produce the endpoint),"with hops extract 128 ppm, Endpoint OD650 = 0.100",8 ppm and 16 ppm
same,Qb (concentration of the antimicrobial in the combination required to produce the endpoint),"with hops extract 256 ppm, Endpoint OD650 = 0.100",8 ppm
tetrakishydroxymethyl phosphonium sulfate [THPS],QB (concentration of the antimicrobial that produces the endpoint when acting alone),Endpoint OD650 = 0.250,16 ppm
same,Qb (concentration of the antimicrobial in the combination required to produce the endpoint),"with hops extract 4 ppm, Endpoint OD650 = 0.250",4 ppm
same,Qb (concentration of the antimicrobial in the combination required to produce the endpoint),"with hops extract 8 ppm, Endpoint OD650 = 0.250",4 ppm and 8 ppm
